The source of these data is US20100160250A1, “METHOD FOR TREATING INFLAMMATORY CONDITIONS” (priority 2008, published 2010).

Common to all, as to format: cell-based
Assay [1] has as its target T1, P2X7 receptor (Homo sapiens, UniProt Q99572).
T1 sequence (Q99572 1-595): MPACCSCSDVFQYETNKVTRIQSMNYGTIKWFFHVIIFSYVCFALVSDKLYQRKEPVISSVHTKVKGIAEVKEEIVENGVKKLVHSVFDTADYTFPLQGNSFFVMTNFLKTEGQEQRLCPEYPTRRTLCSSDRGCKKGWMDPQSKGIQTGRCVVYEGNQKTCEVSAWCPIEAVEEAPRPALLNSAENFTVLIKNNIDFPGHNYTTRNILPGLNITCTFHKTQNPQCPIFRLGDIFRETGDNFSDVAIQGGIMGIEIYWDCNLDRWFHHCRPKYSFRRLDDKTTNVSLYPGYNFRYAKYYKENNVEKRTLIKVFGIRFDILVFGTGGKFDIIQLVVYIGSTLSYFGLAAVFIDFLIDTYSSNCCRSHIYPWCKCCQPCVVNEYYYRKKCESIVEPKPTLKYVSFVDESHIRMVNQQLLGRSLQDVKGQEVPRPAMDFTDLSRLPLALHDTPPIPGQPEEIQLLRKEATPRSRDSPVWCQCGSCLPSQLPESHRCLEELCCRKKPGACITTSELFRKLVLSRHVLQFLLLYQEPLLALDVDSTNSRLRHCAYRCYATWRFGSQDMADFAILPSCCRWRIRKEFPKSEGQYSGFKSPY
Kind of assay: Calcium signalling (Fluo-3, FLIPR) in 1321N1 cells expressing P2X7, BzATP challenge. The arrangement: expressed in transfected cells; host or cells: human astrocytoma 1321N1 cells. The settings on record: human astrocytoma 1321N1 cells expressing P2X7, 30 uM BzATP; read-out: Inhibition of Ca^+2 signaling IC50. Here is the method: Inhibition of Ca^2+ influx into the cell by antagonists of the P2X7 receptor measures inhibition of the ion channel activity of the P2X7 receptor.
Human astrocytoma (1321N1) cells expressing P2X7 were grown to confluency in 96-well plates. Cells were loaded with a solution of Fluo-3 AM (2.5 μM final concentration) in an assay buffer consisting of 10 mM KCl, 118 mM NaCl, 0.25 mM CaCl2, 1 mM MgCl2, 20 mM HEPES, 10 mM glucose, pH 7.4. After a 60-minute incubation with Fluo-3 AM at 25° C., cells were washed and stimulated with serially diluted concentrations of compound and then challenged with 30 uM BzATP. Calcium fluorescence was measured using the FLIPR 89 (Molecular Devices Corp., Sunnyvale, Calif.) and results were calculated using Prism Graph Pad version 3.03 (San Diego, Calif.). Inhibition of calcium dependent fluorescence indicates the assayed compound is an antagonist of the P2X7 receptor.

Assay [2] deals with T1, P2X7 receptor. The assay is described as follows: IL-1β secretion assay in LPS-primed human monocytes stimulated with ATP. The settings on record: human peripheral blood monocytes, 1 ng/mL LPS, 1 mM ATP, 30 min; read-out: IL1β inhibition IC50. The arrangement: monocytes were selected by adherence to the tissue culture plastic; endogenous in cells; host or cells: LPS-primed adherent monocytes from human peripheral blood. An excerpt: Inhibition of IL-1β release by antagonists of the P2X7 receptor is a model of ameliorating inflammatory condition. This assay is an in vitro assay of cytokine secretion that can be used to evaluate the ability of compounds of this invention of Formula I to inhibit cytokine secretion, as the secretion of cytokines contributes to the inflammation in asthma, COPD and other pulmonary diseases, as well as in RA, IBD and neuropathic pain.
Peripheral blood from healthy human volunteers was collected in an acid-citrate-dextrose (ACD) buffer to prevent clotting, layered over a Ficoll-Paque gradient (1:1), and centrifuged for 45 minutes at 1200 rpm. The interface between the plasma layer and the Ficoll layer (buffy coat) was then diluted in RPMI 1640/10% heat inactivated FBS and centrifuged for 10 minutes at 1500 rpm. The resultant pellet was re-suspended in media containing 1 ng/mL lipopolysaccharide (LPS) and plated at a density of 500,000 cells/mL. After a 3 hour incubation (37° C., 5% CO2, humidified air) monocytes were selected by adherence to the tissue culture plastic by washing wells with media. Following the media wash, cells were incubated for 2 minutes with the antagonists prior to the addition of 1 mM ATP. Cells were allowed to incubate with compounds for 30 minutes at 37° C. after which the supernatant was removed for immediate determination of IL-1β concentration. The concentration of IL-1β in cell supernatants was measured using the Bio-Plex (Bio-Rad) system according to manufacture's instructions and inhibition constants were calculated using Prism Graph Pad version 3.03 (San Diego, Calif.). IC50 values represent the concentrations of antagonist compounds necessary to inhibit 50% of the activity (calcium dependent fluorescence or IL-1β concentration) elicited by a given concentration of ATP.

The target in assay [3] is T1, P2X7 receptor. The assay is described as follows: Pore formation assay (Yo-Pro dye influx) in 1321N1 cells expressing P2X7, BzATP challenge. More on the design: expressed in transfected cells; host or cells: human astrocytoma 1321N1 cells. The settings on record: 1321N1 cells expressing P2X7, 100 uM BzATP, Yo-Pro fluorescence after 90 minutes. As for the experimental part: Inhibition of Yo-Pro fluorescent dye influx into the cells following P2X7 receptor activation provides a read-out of compounds potency in inhibition of pore formation activity of the P2X7 receptor.
Assay was conducted essentially as in Alcaraz et al. Human astrocytoma (1321N1) cells expressing P2X7 were seeded in 96-well plates at a density of 200,000 cells/well in assay buffer consisting of 5 mM KCl, 140 mM KAspartate, 10 mM glucose, 10 mM Hepes pH 7.0, 10 mM N-methyl-D-glucoseamine, 1 mM EDTA and 1 uM Yo-Pro dye. Cells were exposed to serially diluted concentrations of compound and then challenged with 100 uM BzATP. Yo-Pro fluorescence was measured after 90 minutes. Inhibition of Yo-Pro dependent fluorescence indicates the assayed compound is an antagonist of the P2X7 receptor.

The IC50 is the midpoint of a concentration-inhibition curve. Take `O=C(Nc1ncnc2c1ncn2[C@@H]1O[C@H](C(=O)O)C2OC3(CCCCC3)O[C@@H]21)NC12CC3CC(CC(C3)C1)C2` (stereo partly drawn) [Compound 38]: the IC50 in assay [1] came out at 597 nM; in assay [2], 98 nM; in assay [3], 52 nM.

Take `O=C(Nc1ncnc2c1ncn2[C@@H]1O[C@H](CO)C2OC3(CCCCC3)O[C@@H]21)NC1CCCCC1` (stereo partly drawn) [Compound 39, 6-(cyclohexylurea)adenosine 2′,3′-cyclohexyl ketal]: the IC50 in assay [1] was 477 nM; in assay [2] it was 65 nM; in assay [3], 346 nM.

With `CCNC(=O)[C@H]1O[C@@H](n2cnc3c(NC(=O)NC4CCCCC4)ncnc32)[C@H]2OC3(CCCCC3)OC12` (stereo partly drawn) [Compound 43, 6-(cyclohexylurea)adenosine 2′,3′-cyclohexyl ketal 5′-ethyl carboxamide], the IC50 worked out at 295 nM in assay [1], 69 nM in assay [2] and 152 nM in assay [3].

With `O=C(Nc1ncnc2c1ncn2[C@@H]1O[C@H](C(=O)NCCO)C2OC3(CCCCC3)O[C@@H]21)NC1CCCCC1` (stereo partly drawn) [Compound 44, 6-(cyclohexylurea)adenosine 2′,3′-cyclohexyl ketal 5′-(2-hydroxy)ethyl carboxamide], the IC50 amounted to 404 nM in assay [1], 58 nM in assay [2] and 257 nM in assay [3].

With `CCNC(=O)OC[C@H]1O[C@@H](n2cnc3c(NC(=O)NC4CCCCC4)ncnc32)[C@H]2OC3(CCCCC3)OC12` (stereo partly drawn) [Compound 46], the IC50 in assay [1] worked out at 852 nM; in assay [2], 99 nM; in assay [3] it was 234 nM.
